From patent US4317912A, “Tetracyclic indole derivatives” (Farmitalia Carlo Erba S.p.A., priority 1979, dated 1982)

Legend:
[1] = system: spontaneously hypertensive rats (Okamoto strain); test: Anti-hypertensive activity in conscious spontaneously hypertensive rats (Okamoto), carotid artery catheter; assay type: in vivo, rat (spontaneously hypertensive; details: for Change in blood pressure after treatment, 30' / Change in heart rate after treatment, 30' / Change in blood pressure after treatment, 60' / Change in heart rate after treatment, 60' / Change in blood pressure after treatment, 120' / Change in heart rate after treatment, 120' / Change in blood pressure after treatment, 240' / Change in heart rate after treatment, 240' / Change in blood pressure after treatment, 360' / Change in heart rate after treatment, 360': mean of 6 animals; for Effect on heart rate: oral (Table 4)
Method: Blood pressure recordings were made in conscious hypertensive unrestrained rats weighing approximately 300 g, via a catheter cronically inserted into the left common carotid artery. Implantation of arterial cannula was made under sodium pentobarbital anesthesia (50 mg/kg i.p.). A 1 cm long incision was made through the previously shaved ventral surface of the neck and the tissues overlying the trachea parted by blunt dissection to reveal the carotid artery. The polyethylene catheter used was made with PE 50 tubing, previously filled with saline containing 250 I.U./ml heparin. The tip of the cannula was pushed at least 2 cm inside the vessel toward the heart. The cannula was then firmly tied and passed beneath the skin to emerge from a small incision in the back of the neck. During the postoperative period and before the start of each recording session, the cannula was flushed through daily with saline containing heparin (250 U.I./ml). The experiments were performed two days after surgery. Drugs were administered by gastric gavage.

[2] = Acute (orientative) oral toxicity in mice; details: mouse, in vivo
Excerpt: The male mice for each group were orally treated with drugs at different dose levels for the determination of orientative toxicity.

[3] = system: spontaneously hypertensive male rats, strain MHS; test: Anti-hypertensive activity in spontaneously hypertensive rats (MHS), blood pressure and heart rate measured at the tail; assay type: in vivo, rat (spontaneously hypertensive; details: for Change in BP, 1st day, 1 hr after dose / Change in HR, 1st day, 1 hr after dose / Change in BP, 1st day, 5 hrs after dose / Change in HR, 1st day, 5 hrs after dose / Change in BP, 4th day, 1 hr after dose / Change in HR, 4th day, 1 hr after dose / Change in BP, 4th day, 5 hrs after dose / Change in HR, 4th day, 5 hrs after dose: mean of 4 animals; for Antihypertensive activity compared with Hydralazine, 1st day / Antihypertensive effect compared with Hydralazine, 4th day / Tolerance after repeated administration / Activity compared with α-methyl-DOPA: 355/1165 2 mg/kg; for Antihypertensive activity compared with Hydralazine, 1st day / Antihypertensive effect compared with Hydralazine, 4th day: 355/1226 3 mg/kg per os vs Hydralazine 3 mg/kg per os; for Tolerance after repeated administration: four days, 355/1226 3 mg/kg, 355/1225 and 355/1229 5 mg/kg per os; for Activity compared with α-methyl-DOPA: 355/1226 3 mg/kg per os
Method: Four spontaneously hypertensive male rats, strains MHS, weighing 250-300 g for each group were used.
The animals were treated for four consecutive days. Drugs were administered by gastric gavage, suspended in 5% arabic gum (0.2 ml/100 g body weight). Blood pressure (BP) and heart rate (HR) were measured at the tail by BP Recorder W+W. Blood pressure and heart rate were measured on the 1st and 4th day of treatment 1 hour before and 1 and 5 hours after drug administration.
*Data of LD50 from the literature. In Tables 1 and 2 are reported
the results of the study of the activity of compounds 355/1165 and
355/1166 upon the BP and HR (measured indirectly by means of a tail cuff)
of spontaneous hypertensive rats, MHS strain (4 rats each group). The
compounds were given orally, once a day for 4 consecutive days.

CN1CC(CC(C#N)C(N)=O)C2Cc3cccc4[nH]cc(c34)CC21 (stereo not drawn) [355/1165, 2-Cyano-3-[trans-5(10→9)abeo-6-methyl-ergoline-8β]-propionamide]
Change in blood pressure after treatment, 30' ([1]; 1 mg/kg os): -21 mmHg | Change in heart rate after treatment, 30' ([1]; 1 mg/kg os): -25 b/min | Change in blood pressure after treatment, 60' ([1]; 1 mg/kg os): -29 mmHg | Change in heart rate after treatment, 60' ([1]; 1 mg/kg os): -45 b/min | Change in blood pressure after treatment, 120' ([1]; 1 mg/kg os): -33 mmHg | Change in heart rate after treatment, 120' ([1]; 1 mg/kg os): -52 b/min | Change in blood pressure after treatment, 240' ([1]; 1 mg/kg os): -26 mmHg | Change in heart rate after treatment, 240' ([1]; 1 mg/kg os): -8 b/min | Change in blood pressure after treatment, 360' ([1]; 1 mg/kg os): -23 mmHg | Change in heart rate after treatment, 360' ([1]; 1 mg/kg os): +18 b/min | Activity compared with hydralazine ([1]; 1 mg/kg per os): 3 times | Hypotensive activity ([1]; 1 mg/kg per os): marked and long lasting hypotensive activity | Effect on heart rate [1]: slight bradycardia and never tachicardia | LD50 at 168 h [2]: > 1000 mg/kg | Change in BP, 1st day, 1 hr after dose ([3]; MHS rats, 0.5 mg/kg os): -13 mmHg | Change in HR, 1st day, 1 hr after dose ([3]; MHS rats, 0.5 mg/kg os): -25 b/min | Change in BP, 1st day, 5 hrs after dose ([3]; MHS rats, 0.5 mg/kg os): -17 mmHg | Change in HR, 1st day, 5 hrs after dose ([3]; MHS rats, 0.5 mg/kg os): -25 b/min | Change in BP, 4th day, 1 hr after dose ([3]; MHS rats, 0.5 mg/kg os): -17 mmHg | Change in HR, 4th day, 1 hr after dose ([3]; MHS rats, 0.5 mg/kg os): -30 b/min | Change in BP, 4th day, 5 hrs after dose ([3]; MHS rats, 0.5 mg/kg os): -3 mmHg | Change in HR, 4th day, 5 hrs after dose ([3]; MHS rats, 0.5 mg/kg os): -35 b/min | Change in BP, 1st day, 1 hr after dose ([3]; MHS rats, 1 mg/kg os): -15 mmHg | Change in HR, 1st day, 1 hr after dose ([3]; MHS rats, 1 mg/kg os): -20 b/min | Change in BP, 1st day, 5 hrs after dose ([3]; MHS rats, 1 mg/kg os): -19 mmHg | Change in HR, 1st day, 5 hrs after dose ([3]; MHS rats, 1 mg/kg os): -15 b/min | Change in BP, 4th day, 1 hr after dose ([3]; MHS rats, 1 mg/kg os): -30 mmHg | Change in HR, 4th day, 1 hr after dose ([3]; MHS rats, 1 mg/kg os): -27 b/min | Change in BP, 4th day, 5 hrs after dose ([3]; MHS rats, 1 mg/kg os): -42 mmHg | Change in HR, 4th day, 5 hrs after dose ([3]; MHS rats, 1 mg/kg os): -20 b/min | Change in BP, 1st day, 1 hr after dose ([3]; MHS rats, 2 mg/kg os): -25 mmHg | Change in HR, 1st day, 1 hr after dose ([3]; MHS rats, 2 mg/kg os): -47 b/min | Change in BP, 1st day, 5 hrs after dose ([3]; MHS rats, 2 mg/kg os): -53 mmHg | Change in HR, 1st day, 5 hrs after dose ([3]; MHS rats, 2 mg/kg os): -80 b/min | Change in BP, 4th day, 1 hr after dose ([3]; MHS rats, 2 mg/kg os): -33 mmHg | Change in HR, 4th day, 1 hr after dose ([3]; MHS rats, 2 mg/kg os): -48 b/min | Change in BP, 4th day, 5 hrs after dose ([3]; MHS rats, 2 mg/kg os): -45 mmHg | Change in HR, 4th day, 5 hrs after dose ([3]; MHS rats, 2 mg/kg os): -55 b/min | Effect on BP ([3]; MHS rats, 0.5, 1 and 2 mg/kg per os, 1st and 4th day): significantly lowers BP on the 1st and 4th day after the treatment | Antihypertensive activity compared with Hydralazine, 1st day ([3]; MHS rats): more marked antihypertensive activity | Antihypertensive effect compared with Hydralazine, 4th day ([3]; MHS rats): even greater effect | Tolerance after repeated administration ([3]; MHS rats): tolerance does not occur after repeated administration | Activity compared with α-methyl-DOPA ([3]; MHS rats): 50 times

CN1CC(CCC(N)=O)C2Cc3cccc4[nH]cc(c34)CC21 (stereo not drawn) [355/1226, Trans-5(10→9)abeo-6-methyl-ergoline-8β-propionamide]
Change in blood pressure after treatment, 30' ([1]; 3 mg/kg os): -19 mmHg | Change in heart rate after treatment, 30' ([1]; 3 mg/kg os): -33 b/min | Change in blood pressure after treatment, 60' ([1]; 3 mg/kg os): -28 mmHg | Change in heart rate after treatment, 60' ([1]; 3 mg/kg os): -30 b/min | Change in blood pressure after treatment, 120' ([1]; 3 mg/kg os): -40 mmHg | Change in heart rate after treatment, 120' ([1]; 3 mg/kg os): -23 b/min | Change in blood pressure after treatment, 240' ([1]; 3 mg/kg os): -32 mmHg | Change in heart rate after treatment, 240' ([1]; 3 mg/kg os): -16 b/min | Change in blood pressure after treatment, 360' ([1]; 3 mg/kg os): -25 mmHg | Change in heart rate after treatment, 360' ([1]; 3 mg/kg os): +4 b/min | Hypotensive activity compared with 355/1165 and 355/1166 ([1]; 3 mg/kg per os): intermediate activity between compound 355/1165 and compound 355/1166 | Effect on heart rate [1]: slight bradycardia and never tachicardia | LD50 at 168 h [2]: > 800 mg/kg | Change in BP, 1st day, 1 hr after dose ([3]; MHS rats, 1 mg/kg os): -32 mmHg | Change in HR, 1st day, 1 hr after dose ([3]; MHS rats, 1 mg/kg os): -20 b/min | Change in BP, 1st day, 5 hrs after dose ([3]; MHS rats, 1 mg/kg os): -27 mmHg | Change in HR, 1st day, 5 hrs after dose ([3]; MHS rats, 1 mg/kg os): +3 b/min | Change in BP, 4th day, 1 hr after dose ([3]; MHS rats, 1 mg/kg os): -21 mmHg | Change in HR, 4th day, 1 hr after dose ([3]; MHS rats, 1 mg/kg os): -5 b/min | Change in BP, 4th day, 5 hrs after dose ([3]; MHS rats, 1 mg/kg os): -42 mmHg | Change in HR, 4th day, 5 hrs after dose ([3]; MHS rats, 1 mg/kg os): -13 b/min | Change in BP, 1st day, 1 hr after dose ([3]; MHS rats, 3 mg/kg os): -47 mmHg | Change in HR, 1st day, 1 hr after dose ([3]; MHS rats, 3 mg/kg os): -20 b/min | Change in BP, 1st day, 5 hrs after dose ([3]; MHS rats, 3 mg/kg os): -57 mmHg | Change in HR, 1st day, 5 hrs after dose ([3]; MHS rats, 3 mg/kg os): -10 b/min | Change in BP, 4th day, 1 hr after dose ([3]; MHS rats, 3 mg/kg os): -40 mmHg | Change in HR, 4th day, 1 hr after dose ([3]; MHS rats, 3 mg/kg os): -40 b/min | Change in BP, 4th day, 5 hrs after dose ([3]; MHS rats, 3 mg/kg os): -42 mmHg | Change in HR, 4th day, 5 hrs after dose ([3]; MHS rats, 3 mg/kg os): -45 b/min | Effect on BP ([3]; MHS rats, 1 and 3 mg/kg per os): decreases BP; especially with the higher dose, this effect is remarkable and long lasting | Antihypertensive activity compared with Hydralazine, 1st day ([3]; MHS rats): more marked antihypertensive activity | Antihypertensive effect compared with Hydralazine, 4th day ([3]; MHS rats): even greater effect | Tolerance after repeated administration ([3]; MHS rats): tolerance does not occur after repeated administration | Activity compared with α-methyl-DOPA ([3]; MHS rats): 50 times
